According to patent publication US6737383B1, “Herbicidal oxadiazolidines” (priority 1999, dated 2004):

Tests used:
[1] = test system: surinam grass; assay: Test B pre/postemergence surinam grass; format: in vivo, Brachiaria decumbens
How it was run: (§1)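 Herbicidal effect was estimated by eye on a ten-point control scale after plants spent twelve to sixteen days in a greenhouse following soil or foliar treatment. Foliar sprays targeted plants at one to four leaves; all doses were formulated in a non-phytotoxic solvent with surfactant.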

[2] = test system: cocklebur; assay: Test B pre/postemergence cocklebur; format: in vivo, Xanthium strumarium
How it was run: as §1

[3] = test system: corn; assay: Test B pre/postemergence corn; format: in vivo, Zea mays
How it was run: as §1

[4] = test system: crabgrass; assay: Test B pre/postemergence crabgrass; format: in vivo, Digitaria sanguinalis
How it was run: as §1

[5] = Postemergence, Rate 62 g/ha, scale 0 to 10, 0 is no effect, 10 is complete control
[6] = Postemergence, Rate 125 g/ha, scale of 0 to 10 where 0 is no effect and 10 is complete control
[7] = Postemergence, Rate 250 g/ha, scale of 0 to 10, 0 is no effect, 10 is complete control
[8] = Preemergence, Rate 62 g/ha, scale of 0 to 10 where 0 is no effect and 10 is complete control
[9] = Preemergence, Rate 125 g/ha, scale of 0 to 10 where 0 is no effect and 10 is complete control
[10] = Preemergence, Rate 250 g/ha, scale 0 to 10 (0 no effect, 10 complete control)
[11] = Preemergence, Rate 500 g/ha, scale of 0 to 10 where 0 is no effect and 10 is complete control
[12] = Rate 500 g/ha, Postemergence, scale 0 to 10, 0 is no effect, 10 is complete control
[13] = Postemergence, Rate 125 g/ha, scale 0 to 10, 0 is no effect, 10 is complete control
[14] = Preemergence, Rate 62 g/ha, scale 0 to 10 (0 no effect, 10 complete control)
[15] = Preemergence, Rate 250 g/ha, scale of 0 to 10 where 0 is no effect and 10 is complete control
[16] = Rate 62 g/ha, Postemergence, scale of 0 to 10 where 0 is no effect and 10 is complete control
[17] = Rate 250 g/ha, Postemergence, scale of 0 to 10 where 0 is no effect and 10 is complete control
[18] = Rate 500 g/ha, Postemergence, scale 0 to 10, 0 no effect, 10 complete control
[19] = Rate 125 g/ha, Preemergence, scale of 0 to 10 where 0 is no effect and 10 is complete control
[20] = Rate 125 g/ha, Postemergence, scale 0 to 10
[21] = Rate 500 g/ha, Postemergence, scale 0 to 10
[22] = Postemergence, Rate 62 g/ha, scale of 0 to 10, 0 is no effect, 10 is complete control
[23] = Postemergence, Rate 500 g/ha, scale of 0 to 10 where 0 is no effect and 10 is complete control
[24] = Preemergence, Rate 125 g/ha, scale 0 to 10, 0 is no effect, 10 is complete control

CC(C)N(C(=O)n1oc(=O)n(CCF)c1=O)c1ccc(Cl)cc1 [Compound 668]
0: Plant response rating, Cocklebur [2, 5] | Cocklebur plant response rating [2, 6] | Cocklebur plant response rating [2, 8] | Cocklebur plant response rating [2, 9] | Plant response rating, Cocklebur [2, 10] | Plant response rating, Cocklebur [2, 11] | Plant response rating, Corn [3, 5] | Corn plant response rating [3, 6] | Corn plant response rating [3, 8]
4: B. signalgrass plant response rating [1, 7] | Plant response rating, Corn [3, 10]
2: Plant response rating, B. signalgrass [1, 6] | Cocklebur plant response rating [2, 7] | Cocklebur plant response rating [2, 12]
5: B. signalgrass plant response rating [1, 8] | B. signalgrass plant response rating [1, 12]
3: Corn plant response rating [3, 7] | Corn plant response rating [3, 12]
9: Plant response rating, B. signalgrass [1, 11] | Plant response rating, Corn [3, 11] | Crabgrass plant response rating [4, 6] | Crabgrass plant response rating [4, 7]
8: B. signalgrass plant response rating [1, 9] | Plant response rating, B. signalgrass [1, 10] | Crabgrass plant response rating [4, 8] | Crabgrass plant response rating [4, 9] | Plant response rating, Crabgrass [4, 10] | Plant response rating, Crabgrass [4, 11]
10: Crabgrass plant response rating [4, 12]
1: Plant response rating, B. signalgrass [1, 5]
6: Plant response rating, Crabgrass [4, 5]

CC(C)N(C(=O)n1oc(=O)n(C2CCCO2)c1=O)c1ccc(F)cc1 (stereo not shown) [Compound 345]
0: Plant response rating, B. signalgrass [1, 13] | Plant response rating, B. signalgrass [1, 14] | B. signalgrass plant response rating (0 to 10 scale, 0 is no effect, 10 is complete control) ([1]; Preemergence, Rate 125 g/ha) | B. signalgrass plant response rating [1, 15] | B. signalgrass plant response rating [1, 11] | B. signalgrass plant response rating [1, 16] | Plant response rating, B. signalgrass [1, 17] | Plant response rating, B. signalgrass [1, 18] | Plant response rating, Cocklebur [2, 13] | Plant response rating, Cocklebur [2, 14] | Cocklebur plant response rating (0 to 10 scale) ([2]; Preemergence, Rate 125 g/ha) | Cocklebur plant response rating [2, 15] | Cocklebur plant response rating [2, 11] | Cocklebur plant response rating [2, 16] | Plant response rating, Cocklebur [2, 18] | Plant response rating, Corn [3, 13] | Plant response rating, Corn [3, 14] | Corn plant response rating (0 to 10 scale) ([3]; Preemergence, Rate 125 g/ha) | Corn plant response rating [3, 15] | Corn plant response rating [3, 11] | Corn plant response rating [3, 16] | Plant response rating, Corn [3, 18] | Plant response rating, Crabgrass [4, 13] | Plant response rating, Crabgrass [4, 14] | Crabgrass plant response rating (0 to 10 scale) ([4]; Preemergence, Rate 125 g/ha) | Crabgrass plant response rating [4, 15] | Crabgrass plant response rating [4, 11] | Crabgrass plant response rating [4, 16] | Plant response rating, Crabgrass [4, 18]

CCOC(=O)C=CCn1c(=O)on(C(=O)N(c2ccc(F)cc2)C(C)C)c1=O [Compound 214]
3: Crabgrass plant response rating [4, 20] | Plant response rating (0 to 10; 0 is no effect, 10 is complete control), Crabgrass ([4]; Rate 250 g/ha, Postemergence)
5: Crabgrass plant response rating [4, 21]
4: Plant response rating, Crabgrass [4, 11]
1: Crabgrass plant response rating [4, 15] | Crabgrass plant response rating [4, 16]
0: B. signalgrass plant response rating [1, 8] | B. signalgrass plant response rating ([1]; Preemergence, Rate 250 g/ha, scale 0 to 10, 0 is no effect, 10 is complete control) | Plant response rating, B. signalgrass [1, 11] | B. signalgrass plant response rating [1, 16] | B. signalgrass plant response rating ([1]; Rate 125 g/ha, Postemergence, scale 0 (no effect) to 10 (complete control)) | B. signalgrass plant response rating [1, 19] | Plant response rating (0 to 10; 0 is no effect, 10 is complete control), B. signalgrass ([1]; Rate 250 g/ha, Postemergence) | B. signalgrass plant response rating [1, 18] | Cocklebur plant response rating [2, 8] | Cocklebur plant response rating [2, 15] | Plant response rating, Cocklebur [2, 11] | Cocklebur plant response rating [2, 16] | Cocklebur plant response rating [2, 20] | Cocklebur plant response rating [2, 19] | Plant response rating (0 to 10; 0 is no effect, 10 is complete control), Cocklebur ([2]; Rate 250 g/ha, Postemergence) | Cocklebur plant response rating [2, 21] | Corn plant response rating [3, 8] | Corn plant response rating [3, 15] | Plant response rating, Corn [3, 11] | Corn plant response rating [3, 16] | Corn plant response rating [3, 20] | Corn plant response rating [3, 19] | Plant response rating (0 to 10; 0 is no effect, 10 is complete control), Corn ([3]; Rate 250 g/ha, Postemergence) | Corn plant response rating [3, 21] | Crabgrass plant response rating [4, 8] | Crabgrass plant response rating [4, 19]

CC(C)N(C(=O)n1oc(=O)n(CCC2OCCO2)c1=O)c1ccccc1 [Compound 560]
9: B. signalgrass plant response rating [1, 11] | Crabgrass plant response rating [4, 14] | Crabgrass plant response rating [4, 24] | Crabgrass plant response rating (0 to 10 scale) ([4]; Preemergence, Rate 250 g/ha)
10: Crabgrass plant response rating [4, 11]
4: B. signalgrass plant response rating [1, 14] | Plant response rating, Corn [3, 23] | Crabgrass plant response rating [4, 13]
8: Plant response rating, Crabgrass [4, 23]
3: B. signalgrass plant response rating [1, 13] | Plant response rating, Crabgrass [4, 17]
2: Plant response rating, Corn [3, 17]
7: Plant response rating, B. signalgrass [1, 23] | B. signalgrass plant response rating [1, 24] | B. signalgrass plant response rating (0 to 10 scale, 0 is no effect, 10 is complete control) ([1]; Preemergence, Rate 250 g/ha)
5: Corn plant response rating (0 to 10 scale) ([3]; Preemergence, Rate 250 g/ha) | Corn plant response rating [3, 11]
6: Plant response rating, B. signalgrass [1, 17]
0: B. signalgrass plant response rating [1, 22] | Cocklebur plant response rating [2, 22] | Cocklebur plant response rating [2, 13] | Plant response rating, Cocklebur [2, 23] | Cocklebur plant response rating [2, 14] | Cocklebur plant response rating [2, 24] | Cocklebur plant response rating (0 to 10 scale) ([2]; Preemergence, Rate 250 g/ha) | Cocklebur plant response rating [2, 11] | Plant response rating, Cocklebur [2, 17] | Corn plant response rating [3, 22] | Corn plant response rating [3, 13] | Corn plant response rating [3, 14] | Corn plant response rating [3, 24] | Crabgrass plant response rating [4, 22]
